In article PMC4579270, “Identification and Characterization of an Irreversible Inhibitor of CDK2” (Chemistry & Biology, 2015):

What was measured:
Experiment in all cases: Dundee protein kinase screen
Type in all cases: biochemical
CAMK1 = CAMK1 (Homo sapiens, UniProt Q14012); settings: CAMK1, 1µM; read-out: %Remaining activity at 1µM NU6300
Procedure: (§1) Prior to determining its cellular activity, we carried out a screen to assess its selectivity against a panel of 131 protein kinases under conditions that would not distinguish between a reversible or irreversible mode of action. […] These 13 kinases and 29 additional kinases, selected for their known sensitivity to other inhibitors within the purine series, were then tested in a modified screening format in which the assay was repeated following a 4-hr pre-incubation (Table S3B). […] However, conformational flexibility around the active site may promote such an interaction with a residue from another part of the structure ([Martin et al., 2012]).
(§2) Table S3, Related to Figure 4. NCL-0006300 protein kinase selectivity. (A) NU6300 was tested at a single concentration of 1µM against 131 protein kinases present in a Dundee protein kinase screen (Bain et al., 2007). Values given are % activity remaining and are the average of duplicate measurements: 0-25% (red), 26-50% (yellow), 51-80% (black) and above 81% (green). The kinase domain sequences (as defined by UniProt) of […]
(§3) have a lysine residue at a position close to CDK2 Lys88 or Lys89. However, in the structure of tyrosine-protein kinase BTK (PDB ID: 3GEN) the residue equivalent to CDK2 Asp86 is Cys481 and therefore there is the potential for a covalent adduct to be formed through this side chain. […]

CDK2-Cyclin A = CDK2-Cyclin A (Homo sapiens, UniProt P24941); settings: read-out: %Remaining activity at 1µM NU6300
Procedure: as §1, §2, §3

EF2K = EF2K (Homo sapiens, UniProt O00418); settings: read-out: %Remaining activity at 1µM NU6300
Procedure: as §1, §2, §3

CHK1 = target: T1, CHK1 (Homo sapiens, UniProt O14757); settings: CHK1, 1µM; read-out: %Remaining activity at 1µM NU6300
T1 sequence (O14757 1-476): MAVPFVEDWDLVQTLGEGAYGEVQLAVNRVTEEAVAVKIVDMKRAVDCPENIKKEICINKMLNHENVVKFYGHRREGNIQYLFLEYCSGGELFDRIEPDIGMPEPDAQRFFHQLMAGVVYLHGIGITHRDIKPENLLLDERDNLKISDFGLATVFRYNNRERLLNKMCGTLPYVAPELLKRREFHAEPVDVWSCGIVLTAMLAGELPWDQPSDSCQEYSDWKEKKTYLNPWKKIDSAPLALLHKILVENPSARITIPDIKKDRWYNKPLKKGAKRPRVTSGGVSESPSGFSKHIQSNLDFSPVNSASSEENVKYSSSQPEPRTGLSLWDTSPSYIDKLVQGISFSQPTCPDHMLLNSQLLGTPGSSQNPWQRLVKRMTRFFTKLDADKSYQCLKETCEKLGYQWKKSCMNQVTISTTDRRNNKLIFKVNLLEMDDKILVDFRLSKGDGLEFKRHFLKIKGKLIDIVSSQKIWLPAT
Procedure: as §1, §2, §3

GCK = GCK (Homo sapiens, UniProt Q12851); settings: read-out: %Remaining activity at 1µM NU6300
Procedure: as §1, §2, §3

MAPKAP-K2 = MAPKAP-K2 (Homo sapiens, UniProt P49137); settings: MAPKAP-K2, 1µM; read-out: %Remaining activity at 1µM NU6300
Procedure: as §1, §2, §3

BRSK2 = BRSK2 (Homo sapiens, UniProt Q8IWQ3); settings: BRSK2, 1µM; read-out: %Remaining activity at 1µM NU6300
Procedure: as §1, §2, §3

MARK2 = MARK2 (Homo sapiens, UniProt Q7KZI7); settings: MARK2, 1µM; read-out: %Remaining activity at 1µM NU6300
Procedure: as §1, §2, §3

BTK = BTK (Homo sapiens, UniProt Q06187); settings: read-out: %Remaining activity at 1µM NU6300
Procedure: as §1, §2, §3

IKKb = IKKb (Homo sapiens, UniProt O14920); settings: read-out: %Remaining activity at 1µM NU6300
Procedure: as §1, §2, §3

MARK4 = target: T2, MARK4 (Homo sapiens, UniProt Q96L34); settings: MARK4, 1µM; read-out: %Remaining activity at 1µM NU6300
T2 sequence (Q96L34 1-752): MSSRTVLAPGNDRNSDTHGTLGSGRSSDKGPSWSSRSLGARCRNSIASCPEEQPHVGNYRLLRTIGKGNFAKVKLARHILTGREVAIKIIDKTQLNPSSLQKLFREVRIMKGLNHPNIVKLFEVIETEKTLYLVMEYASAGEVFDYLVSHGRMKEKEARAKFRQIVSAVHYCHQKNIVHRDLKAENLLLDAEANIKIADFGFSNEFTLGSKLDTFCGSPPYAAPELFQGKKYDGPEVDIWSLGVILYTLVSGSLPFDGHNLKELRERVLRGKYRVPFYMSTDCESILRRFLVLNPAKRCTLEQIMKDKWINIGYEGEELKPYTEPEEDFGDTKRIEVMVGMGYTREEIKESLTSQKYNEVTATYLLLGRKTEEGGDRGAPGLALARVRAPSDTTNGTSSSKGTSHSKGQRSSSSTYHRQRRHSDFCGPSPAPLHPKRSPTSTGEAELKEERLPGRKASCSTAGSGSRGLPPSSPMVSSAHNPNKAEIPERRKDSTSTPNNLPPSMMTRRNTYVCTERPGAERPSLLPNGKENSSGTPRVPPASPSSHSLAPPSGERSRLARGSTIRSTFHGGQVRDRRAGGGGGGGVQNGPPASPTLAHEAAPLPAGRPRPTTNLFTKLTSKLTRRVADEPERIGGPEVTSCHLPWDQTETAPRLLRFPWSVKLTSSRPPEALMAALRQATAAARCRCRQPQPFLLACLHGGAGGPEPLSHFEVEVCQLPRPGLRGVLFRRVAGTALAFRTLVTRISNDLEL
Procedure: as §1, §2, §3

HIPK3 = HIPK3 (Homo sapiens, UniProt Q9H422); settings: HIPK3, 1µM; read-out: %Remaining activity at 1µM NU6300
Procedure: as §1, §2, §3

LKB1 = LKB1 (Homo sapiens, UniProt Q15831); settings: LKB1, 1µM; read-out: %Remaining activity at 1µM NU6300
Procedure: as §1, §2, §3

MARK1 = MARK1 (Homo sapiens, UniProt Q9P0L2); settings: MARK1, 1µM; read-out: %Remaining activity at 1µM NU6300
Procedure: as §1, §2, §3

CLK2 = CLK2 (Homo sapiens, UniProt P49760); settings: CLK2, 1µM; read-out: %Remaining activity at 1µM NU6300
Procedure: as §1, §2, §3

Sequence of CLK2 (P49760 whole entry): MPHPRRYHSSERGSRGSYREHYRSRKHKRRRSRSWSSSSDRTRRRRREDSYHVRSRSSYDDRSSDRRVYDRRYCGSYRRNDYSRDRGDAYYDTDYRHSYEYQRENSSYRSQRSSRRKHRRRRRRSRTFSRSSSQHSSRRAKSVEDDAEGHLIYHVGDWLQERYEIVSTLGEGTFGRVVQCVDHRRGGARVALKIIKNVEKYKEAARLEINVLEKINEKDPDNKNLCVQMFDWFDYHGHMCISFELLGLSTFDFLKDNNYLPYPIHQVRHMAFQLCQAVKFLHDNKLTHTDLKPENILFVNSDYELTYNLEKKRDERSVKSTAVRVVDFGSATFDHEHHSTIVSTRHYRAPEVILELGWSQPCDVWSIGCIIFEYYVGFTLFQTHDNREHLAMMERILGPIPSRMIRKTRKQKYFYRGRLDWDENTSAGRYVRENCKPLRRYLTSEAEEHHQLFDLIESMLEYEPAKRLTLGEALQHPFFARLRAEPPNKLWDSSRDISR
Sequence of BRSK2 (Q8IWQ3 whole entry): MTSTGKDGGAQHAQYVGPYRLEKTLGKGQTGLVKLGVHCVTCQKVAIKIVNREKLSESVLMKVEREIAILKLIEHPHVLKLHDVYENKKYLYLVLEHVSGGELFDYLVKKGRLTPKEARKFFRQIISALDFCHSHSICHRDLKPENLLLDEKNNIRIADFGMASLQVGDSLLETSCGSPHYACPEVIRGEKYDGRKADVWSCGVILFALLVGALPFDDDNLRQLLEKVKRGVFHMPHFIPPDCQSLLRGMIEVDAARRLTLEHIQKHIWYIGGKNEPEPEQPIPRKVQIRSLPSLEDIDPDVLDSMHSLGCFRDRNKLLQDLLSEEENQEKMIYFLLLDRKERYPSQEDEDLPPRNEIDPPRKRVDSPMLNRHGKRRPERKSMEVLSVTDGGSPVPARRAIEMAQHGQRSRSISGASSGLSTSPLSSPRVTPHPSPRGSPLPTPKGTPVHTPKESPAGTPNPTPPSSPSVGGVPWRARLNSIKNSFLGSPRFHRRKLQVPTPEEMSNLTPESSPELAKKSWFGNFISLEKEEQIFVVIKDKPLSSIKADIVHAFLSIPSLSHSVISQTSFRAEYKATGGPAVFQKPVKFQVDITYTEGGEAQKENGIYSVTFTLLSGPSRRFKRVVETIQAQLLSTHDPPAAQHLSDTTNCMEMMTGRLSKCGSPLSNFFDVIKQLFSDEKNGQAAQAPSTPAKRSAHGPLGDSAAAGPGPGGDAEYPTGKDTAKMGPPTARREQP
Sequence of LKB1 (Q15831 whole entry): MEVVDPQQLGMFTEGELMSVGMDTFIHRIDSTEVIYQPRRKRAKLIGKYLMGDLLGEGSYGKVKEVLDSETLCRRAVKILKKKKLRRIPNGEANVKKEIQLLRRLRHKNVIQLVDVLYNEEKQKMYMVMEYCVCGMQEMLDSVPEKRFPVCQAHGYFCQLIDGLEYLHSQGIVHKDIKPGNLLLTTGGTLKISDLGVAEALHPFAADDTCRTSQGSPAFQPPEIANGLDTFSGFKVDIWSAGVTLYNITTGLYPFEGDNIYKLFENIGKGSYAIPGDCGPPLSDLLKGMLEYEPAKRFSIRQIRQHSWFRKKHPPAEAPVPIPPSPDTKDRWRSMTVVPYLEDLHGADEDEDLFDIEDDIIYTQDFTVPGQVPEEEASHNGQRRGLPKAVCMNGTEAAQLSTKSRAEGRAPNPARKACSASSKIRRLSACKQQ
Sequence of LKB1 (Q7RTN6 whole entry partner): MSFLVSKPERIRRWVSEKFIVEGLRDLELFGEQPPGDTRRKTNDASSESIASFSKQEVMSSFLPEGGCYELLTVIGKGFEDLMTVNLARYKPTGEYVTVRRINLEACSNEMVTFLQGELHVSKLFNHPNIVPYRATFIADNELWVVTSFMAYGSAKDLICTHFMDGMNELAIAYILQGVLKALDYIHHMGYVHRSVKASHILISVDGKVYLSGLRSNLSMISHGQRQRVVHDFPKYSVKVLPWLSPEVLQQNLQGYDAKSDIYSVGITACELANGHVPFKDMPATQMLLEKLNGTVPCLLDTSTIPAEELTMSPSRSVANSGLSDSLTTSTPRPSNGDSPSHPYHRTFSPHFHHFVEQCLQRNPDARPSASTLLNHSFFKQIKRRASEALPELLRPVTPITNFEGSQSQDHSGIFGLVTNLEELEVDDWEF
Sequence of LKB1 (Q9Y376 whole entry partner): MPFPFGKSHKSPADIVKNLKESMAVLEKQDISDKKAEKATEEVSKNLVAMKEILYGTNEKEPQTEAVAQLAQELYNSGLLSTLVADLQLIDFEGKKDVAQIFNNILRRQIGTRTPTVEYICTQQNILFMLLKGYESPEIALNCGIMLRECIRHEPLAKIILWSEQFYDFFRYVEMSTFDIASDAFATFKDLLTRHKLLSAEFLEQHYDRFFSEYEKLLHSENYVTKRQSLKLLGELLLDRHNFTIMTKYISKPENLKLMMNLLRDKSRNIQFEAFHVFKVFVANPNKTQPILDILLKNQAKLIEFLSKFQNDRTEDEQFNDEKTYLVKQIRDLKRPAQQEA
Sequence of BTK (Q06187 whole entry): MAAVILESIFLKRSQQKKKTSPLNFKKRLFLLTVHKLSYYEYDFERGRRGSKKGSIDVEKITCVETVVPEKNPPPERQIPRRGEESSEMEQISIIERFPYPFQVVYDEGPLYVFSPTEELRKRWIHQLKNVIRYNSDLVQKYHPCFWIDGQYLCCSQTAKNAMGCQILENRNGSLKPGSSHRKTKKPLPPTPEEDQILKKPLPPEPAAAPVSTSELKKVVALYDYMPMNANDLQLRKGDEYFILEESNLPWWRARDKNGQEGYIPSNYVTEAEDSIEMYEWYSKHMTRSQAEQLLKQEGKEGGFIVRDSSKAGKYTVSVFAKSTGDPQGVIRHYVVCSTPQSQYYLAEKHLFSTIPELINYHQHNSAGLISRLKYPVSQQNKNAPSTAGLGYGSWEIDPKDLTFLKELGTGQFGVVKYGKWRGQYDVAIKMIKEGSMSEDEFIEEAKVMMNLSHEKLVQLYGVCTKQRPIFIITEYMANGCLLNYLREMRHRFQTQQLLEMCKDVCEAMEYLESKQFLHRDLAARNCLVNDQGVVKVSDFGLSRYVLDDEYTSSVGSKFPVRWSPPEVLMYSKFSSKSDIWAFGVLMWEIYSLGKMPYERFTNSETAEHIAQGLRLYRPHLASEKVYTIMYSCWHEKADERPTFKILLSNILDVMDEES
Sequence of HIPK3 (Q9H422 whole entry): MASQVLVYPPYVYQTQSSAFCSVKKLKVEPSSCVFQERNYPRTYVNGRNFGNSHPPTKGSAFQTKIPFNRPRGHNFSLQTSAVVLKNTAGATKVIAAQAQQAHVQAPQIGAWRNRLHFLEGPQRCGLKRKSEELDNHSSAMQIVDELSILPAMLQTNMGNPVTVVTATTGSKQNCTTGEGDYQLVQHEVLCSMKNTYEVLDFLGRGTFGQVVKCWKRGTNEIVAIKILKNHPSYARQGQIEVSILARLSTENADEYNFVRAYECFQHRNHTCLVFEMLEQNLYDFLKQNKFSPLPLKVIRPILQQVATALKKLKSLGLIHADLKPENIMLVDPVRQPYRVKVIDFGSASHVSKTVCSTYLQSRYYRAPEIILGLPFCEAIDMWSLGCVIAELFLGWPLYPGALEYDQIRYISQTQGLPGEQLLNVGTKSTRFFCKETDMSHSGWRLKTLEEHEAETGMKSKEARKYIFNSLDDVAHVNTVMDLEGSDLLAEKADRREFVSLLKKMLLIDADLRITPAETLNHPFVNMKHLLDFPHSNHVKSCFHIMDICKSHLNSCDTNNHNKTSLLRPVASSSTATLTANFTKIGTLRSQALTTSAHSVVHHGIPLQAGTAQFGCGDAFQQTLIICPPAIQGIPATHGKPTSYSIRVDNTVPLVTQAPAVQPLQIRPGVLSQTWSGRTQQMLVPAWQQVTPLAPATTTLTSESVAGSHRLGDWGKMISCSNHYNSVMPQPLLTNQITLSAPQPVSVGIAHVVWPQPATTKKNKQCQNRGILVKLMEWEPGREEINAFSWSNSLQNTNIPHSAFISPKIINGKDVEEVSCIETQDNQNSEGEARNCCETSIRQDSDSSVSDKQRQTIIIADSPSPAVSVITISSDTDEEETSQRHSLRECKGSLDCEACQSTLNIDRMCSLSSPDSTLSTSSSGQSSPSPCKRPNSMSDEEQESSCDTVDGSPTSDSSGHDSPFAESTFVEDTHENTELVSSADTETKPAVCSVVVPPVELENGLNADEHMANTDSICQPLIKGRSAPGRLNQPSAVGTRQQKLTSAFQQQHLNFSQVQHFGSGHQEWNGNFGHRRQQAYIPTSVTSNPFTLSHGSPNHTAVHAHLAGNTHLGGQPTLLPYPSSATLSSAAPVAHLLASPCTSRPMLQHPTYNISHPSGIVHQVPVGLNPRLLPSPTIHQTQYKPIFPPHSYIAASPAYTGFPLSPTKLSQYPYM
Sequence of MAPKAP-K2 (P49137 whole entry): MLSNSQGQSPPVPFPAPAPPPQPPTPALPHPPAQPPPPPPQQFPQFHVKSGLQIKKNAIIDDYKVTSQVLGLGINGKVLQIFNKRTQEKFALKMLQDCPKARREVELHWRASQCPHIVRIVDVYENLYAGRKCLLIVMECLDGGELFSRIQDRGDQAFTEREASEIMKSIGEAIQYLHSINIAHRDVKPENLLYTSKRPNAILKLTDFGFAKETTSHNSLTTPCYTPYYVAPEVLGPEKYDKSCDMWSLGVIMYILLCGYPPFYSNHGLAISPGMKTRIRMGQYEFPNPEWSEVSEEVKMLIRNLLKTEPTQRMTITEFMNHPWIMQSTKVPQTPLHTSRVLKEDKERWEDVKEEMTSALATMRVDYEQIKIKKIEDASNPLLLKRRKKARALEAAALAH

Structure (SMILES): C=CS(=O)(=O)c1ccc(Nc2nc(OCC3CCCCC3)c3nc[nH]c3n2)cc1 [NU6300, 6-(cyclohexylmethoxy)-N-(4-(vinylsulfonyl)phenyl)-9H-purin-2-amine]
- remaining activity at 1 µM (CAMK1): 89%
- remaining activity at 1 µM (CDK2-Cyclin A): 27%
- remaining activity at 1 µM (EF2K): 69%
- remaining activity at 1 µM (CHK1): 38%
- remaining activity at 1 µM (GCK): 26%
- remaining activity at 1 µM (MAPKAP-K2): 93%
- remaining activity at 1 µM (BRSK2): 60%
- remaining activity at 1 µM (MARK2): 69%
- remaining activity at 1 µM (BTK): 17%
- remaining activity at 1 µM (IKKb): 84%
- remaining activity at 1 µM (MARK4): 37%
- remaining activity at 1 µM (HIPK3): 96%
- remaining activity at 1 µM (LKB1): 59%
- remaining activity at 1 µM (MARK1): 47%
- remaining activity at 1 µM (CLK2): 27%
